Results: ChEMBL document CHEMBL4808223, “Design, synthesis and biological activity of bis-sulfonyl-BODIPY probes for tumor cell imaging” (Bioorg Med Chem Lett, 2021)

Experiments:
[1] = Drug uptake in human HeLa cells assessed as increase in fluorescence intensity at 10 uM incubated for 24 hrs by DAPI staining based confocal microscopic analysis; format: ADME, cell-based
HeLa [2] = experiment: Cytotoxicity against human HeLa cells by MTT assay; format: functional, cell-based
L02 = experiment: Cytotoxicity against human L02 cells by MTT assay; format: cell-based
HCT-116 = experiment: Cytotoxicity against human HCT-116 cells by MTT assay; format: functional, cell-based
HeLa [3] = experiment: Induction of apoptosis in human HeLa cells assessed as viable cells measured after 12 hrs by Annexin-V-FITC/propidium iodide staining based flow cytometry; format: functional
[4] = Drug uptake in tumor of mouse xenografted with human HeLa cells administered intraperitoneally and measured after 30 mins by fluorescence imaging analysis; format: ADME, tissue-based, Neoplasm; conditions: in vivo, ip, 0.5 h
HeLa [5] = experiment: Induction of apoptosis in human HeLa cells assessed as early apoptotic cells measured after 12 hrs by Annexin-V-FITC/propidium iodide staining based flow cytometry; format: functional
HeLa [6] = experiment: Induction of apoptosis in human HeLa cells assessed as late apoptotic cells measured after 12 hrs by Annexin-V-FITC/propidium iodide staining based flow cytometry; format: functional
HeLa [7] = experiment: Induction of apoptosis in human HeLa cells assessed as necrotic cells measured after 12 hrs by Annexin-V-FITC/propidium iodide staining based flow cytometry; format: functional

Row | Compound | Drug uptake [1] | IC50 (HeLa [2]) [µM] | IC50 (L02) [µM] | IC50 (HCT-116) [µM] | Activity (HeLa [3]) [%] | Drug uptake [4] | Activity (HeLa [5]) [%] | Activity (HeLa [6]) [%] | Activity (HeLa [7]) [%]
1 | CCC1=C(C)C2=C(c3ccccc3)c3ccc(NCCN)n3[B-](F)(F)[N+]2=C1C | Active |  |  |  |  |  |  |  | 
2 | CCC1=C(C)C2=C(c3ccccc3)c3ccc(NCCNCC(=O)c4ccc(OS(C)(=O)=O)cc4OS(C)(=O)=O)n3[B-](F)(F)[N+]2=C1C | Active | 95.5 | 41.7 | 101 |  |  |  |  | 
3 | CCC1=C(C)C2=C(c3ccccc3)c3ccc(NCCNCC(=O)c4ccc(OS(=O)(=O)c5ccccc5)cc4OS(=O)(=O)c4ccccc4)n3[B-](F)(F)[N+]2=C1C | Active | 89.1 | 53.3 | 93.1 | 96.38 | Active | 0.24 | 2.46 | 0.91
